In ChEMBL document CHEMBL1139992, “Synthesis and biological activity of enantiomeric pairs of 5-vinylthiolactomycin congeners” (Bioorg Med Chem Lett, 2007):
Converted amounts (≈) assume the structure as drawn.

Legend:
[1] = tested on: Haemophilus influenzae; assay: Antimicrobial activity against Haemophilus influenzae IID983; format: functional
[2] = tested on: Staphylococcus aureus; assay: Antimicrobial activity against Staphylococcus aureus; format: functional
[3] = tested on: Moraxella catarrhalis; assay: Antimicrobial activity against Moraxella catarrhalis ATCC 25238; format: functional
[4] = Inhibition of type1 FAS in HepG2 cells; format: cell-based, Homo sapiens
[5] = tested on: Bacteroides fragilis; assay: Antimicrobial activity against Bacteroides fragilis GAI5560; format: functional

| SMILES | MIC [1] [µg/mL] | MIC [2] [µg/mL] | MIC [3] [µg/mL] | IC50 [4] [µg/mL] | MIC [5] [µg/mL] |
| --- | --- | --- | --- | --- | --- |
| C=C/C(C)=C/[C@]1(C)SC(=O)C(C)=C1O |  | > 128 | > 128 | 43.7 (≈ 208 µM) |  |
| CCCCCC/C=C/[C@]1(C)SC(=O)C(C)=C1O (stereo in doubt; form 1) |  |  |  | 34.8 (≈ 137 µM) |  |
| CCC/C=C/[C@]1(C)SC(=O)C(C)=C1O | > 128 | > 128 | > 128 | 20 (≈ 94.2 µM) | > 128 |
| C=C[C@@]1(C)SC(=O)C(C)=C1O | > 128 | > 128 | > 128 | > 80 | > 128 |
| CCCC/C=C/[C@]1(C)SC(=O)C(C)=C1O | > 128 | > 128 | > 128 | 19.9 (≈ 87.9 µM) | > 128 |
| CCCC/C=C/[C@@]1(C)SC(=O)C(C)=C1O | > 128 | > 128 | > 128 | 33.7 (≈ 149 µM) | > 128 |
| CC/C=C/[C@]1(C)SC(=O)C(C)=C1O | > 128 | > 128 | > 128 | 47 (≈ 237 µM) | > 128 |
| CCCCCC/C=C/[C@@]1(C)SC(=O)C(C)=C1O | > 128 | > 128 | > 128 | 57 (≈ 224 µM) | > 128 |
| CCCCCC/C=C/[C@@]1(C)SC(=O)C=C1O | > 128 | > 128 | > 128 | 20.1 (≈ 83.6 µM) | > 128 |
| CC/C=C/[C@@]1(C)SC(=O)C(C)=C1O | > 128 | > 128 | > 128 | 57.5 (≈ 290 µM) | > 128 |
| C=C/C(C)=C/[C@]1(C)SC(=O)C=C1O |  | > 128 | > 128 | 19 (≈ 96.8 µM) |  |
| C/C=C/[C@@]1(C)SC(=O)C=C1O | > 128 | > 128 | > 128 | 72.1 (≈ 424 µM) | > 128 |
| CCCC/C=C/[C@@]1(C)SC(=O)C=C1O | > 128 | > 128 | > 128 | 18.6 (≈ 87.6 µM) | > 128 |
| O=C(O)c1cn(C2CC2)c2cc(N3CCNCC3)c(F)cc2c1=O [CIPROFLOXACIN] | 0.008 (≈ 0.0241 µM) | 0.063 (≈ 0.19 µM) | 0.031 (≈ 0.0936 µM) |  | 4 (≈ 12.1 µM) |
| C/C=C/[C@]1(C)SC(=O)C(C)=C1O | > 128 | > 128 | > 128 | 37.1 (≈ 201 µM) | > 128 |
| C=C1C(=O)O[C@@H](CCCCCCCC)[C@@H]1C(=O)O |  |  |  | 7.4 (≈ 29.1 µM) |  |
| C=C/C(C)=C/[C@@]1(C)SC(=O)C(C)=C1O [THIOLACTOMYCIN] | 2 (≈ 9.51 µM) | 128 (≈ 609 µM) | 0.25 (≈ 1.19 µM) | > 80 | 1 (≈ 4.76 µM) |
| C=C[C@]1(C)SC(=O)C=C1O | > 128 | > 128 | > 128 | 70.1 (≈ 449 µM) | > 128 |
| CCCC/C=C/[C@]1(C)SC(=O)C=C1O | > 128 | > 128 | > 128 | 21 (≈ 98.9 µM) | > 128 |

Now from value to compound:

| MIC [1] [µg/mL] | MIC [2] [µg/mL] | MIC [3] [µg/mL] | IC50 [4] [µg/mL] | MIC [5] [µg/mL] | SMILES |
| --- | --- | --- | --- | --- | --- |
| > 128 | > 128 | > 128 | > 80 | > 128 | C/C=C/[C@]1(C)SC(=O)C=C1O |
| > 128 | > 128 | > 128 | 8.8 (≈ 44.4 µM) | > 128 | CCC/C=C/[C@]1(C)SC(=O)C=C1O |
| > 128 | > 128 | > 128 | 41.6 (≈ 210 µM) | > 128 | CCC/C=C/[C@@]1(C)SC(=O)C=C1O |
| > 128 | > 128 | > 128 | 72.3 (≈ 392 µM) | > 128 | C/C=C/[C@@]1(C)SC(=O)C(C)=C1O |
| > 128 | > 128 | > 128 | 41.5 (≈ 195 µM) | > 128 | CCC/C=C/[C@@]1(C)SC(=O)C(C)=C1O |
| > 128 | > 128 | > 128 | > 80 | > 128 | C=C[C@]1(C)SC(=O)C(C)=C1O |
| > 128 | > 128 | > 128 | 18.9 (≈ 103 µM) | > 128 | CC/C=C/[C@]1(C)SC(=O)C=C1O |
| 32 (≈ 163 µM) | > 128 | 16 (≈ 81.5 µM) | > 80 | 128 (≈ 652 µM) | C=C/C(C)=C/[C@@]1(C)SC(=O)C=C1O |
| > 128 | > 128 | > 128 | > 80 | > 128 | C=C[C@@]1(C)SC(=O)C=C1O |
| > 128 | > 128 | > 128 | 40.3 (≈ 219 µM) | > 128 | CC/C=C/[C@@]1(C)SC(=O)C=C1O |
